Laboratory results: US20160200684A2, “Pharmaceutical Compositions for the Treatment of CFTR-Mediated Disorders” (Vertex Pharmaceuticals Incorporated, priority 2012, published 2016)
Read-outs that look alike come from different tables or passages of the source.

Legend:
Type in all cases: physicochemical
[1] = Solubility of Compound 3 in solvents
[2] = Stability of Compound 2 aqueous suspension in 0.5% methylcellulose/0.5% polysorbate 80; details: for conversion of salt form in suspension vehicle: at T(0), XRPD, 1H NMR
Protocol: Methylcellulose (0.5 g) was combined with 99.0 g of purified water in a beaker and stirred in a 60-70° C. water bath for 30′-1 hr. The solution was stirred in a 0° C. ice/water bath for another 30′ or until clear. Polysorbate 80 (0.5 g) was added and stirring at room temperature followed for 30′-1 hr or until a clear solution was obtained.
The appropriate amount of Compound 2 HCl salt based on free base was weighed and transferred to a scintillation vial. The desired amount of 0.5% methylcellulose and 0.5% polysorbate 80 stock solution for making a 6 mg/mL based on free base (6.48 mg/mL based on HCl salt) was transferred into the vial and sonicated for 20 minutes with alternate stirring for 1-2 minutes. The solution was homogenized for approximately 1-2 minutes.

[3] = Stability of Compound 2 aqueous suspension in 0.5% methylcellulose; details: room temperature; methylcellulose formulation
Protocol: A 100 mL stock solution of 0.5% by weight methylcellulose was prepared by stirring 0.5 g of methylcellulose with 99.5 g of purified water until completely dissolved (approximately 24 hours). The appropriate amount of Compound 2 HCl salt based on free base was weighed and transferred to a scintillation vial. The desired amount of 0.5% methylcellulose stock solution for making a 6 mg/mL based on free base (6.48 mg/mL based on HCl salt) was transferred into the vial and sonicated for 20 minutes and homogenized for approximately 5 minutes.

[4] = 0.5% methylcellulose/0.5% polysorbate 80

## CC(C)(CO)c1cc2cc(NC(=O)C3(c4ccc5c(c4)OC(F)(F)O5)CC3)c(F)cc2n1C[C@H](O)CO [Compound 3, (S)-1-(2,2-difluorobenzo[d][1,3]dioxol-5-yl)-N-(1-(2,3-dihydroxypropyl)-6-fluoro-2-(1-hydroxy-2-methylpropan-2-yl)-1H-indol-5-yl)cyclopropanecarboxamide]
[1]; first solvent: ethyl acetate, ethanol, isopropyl alcohol, or acetone
  solubility: greater than 20 mg/mL
[1]; organic solvent or mixture, acetonitrile, methanol, ethanol, isopropyl alcohol, acetone, read-out: solubility
  solubility: > 20 mg/mL
[1]; second solvent: heptane or water, water, read-out: solubility (poor)
  solubility: < 1 mg/mL

## Cc1ccc(NC(=O)C2(c3ccc4c(c3)OC(F)(F)O4)CC2)nc1-c1cccc(C(=O)O)c1.Cl [Compound 2 HCl salt, 3-(6-(1-(2,2-Difluorobenzo [d][1,3]dioxol-5-yl)cyclopropanecarboxamido)-3-methylpyridin-2-yl)benzoic acid.HCl salt]
[2]; [4]
  physical stability of suspension: not physically stable
  conversion of salt form in suspension vehicle: quickly converted to Compound 2 Form I
[2]; 0.5% methylcellulose/0.5% polysorbate 80, listed as HCl salt
  conversion of salt form in suspension vehicle: quickly converted to Compound 2 Form I at T(0)

## Cc1ccc(NC(=O)C2(c3ccc4c(c3)OC(F)(F)O4)CC2)nc1-c1cccc(C(=O)O)c1 [Compound 2 Form I, 3-(6-(1-(2,2-difluorobenzo[d][1,3]dioxol-5-yl)cyclopropanecarboxamido)-3-methylpyridin-2-yl)benzoic acid]
[3]
  physically and chemically stable, no sign of chemical degradation: at least 24 hrs
[2]; room temperature, 0.5% methylcellulose/0.5% polysorbate 80 formulation vehicle
  chemically stable, no sign of chemical degradation: at least 24 hrs
